Among the data in patent publication US20230002373A1, “COMPOUNDS AND COMPOSITIONS FOR TREATING CONDITIONS ASSOCIATED WITH STING ACTIVITY” (IFM Due, Inc., priority 2019, published 2023) are EC50 values, retold here.

The structures appear in SMILES notation. Bounds are passed on as bounds.

In the first assay the target is T1, hSTING (Homo sapiens, UniProt Q86WV6, G230A/H232R/R293Q/R71H).
T1 construct: host or cells: THP1-Dual KO-IFNAR2 cells
T1 sequence (Q86WV6 whole entry R71H/G230A/H232R/R293Q): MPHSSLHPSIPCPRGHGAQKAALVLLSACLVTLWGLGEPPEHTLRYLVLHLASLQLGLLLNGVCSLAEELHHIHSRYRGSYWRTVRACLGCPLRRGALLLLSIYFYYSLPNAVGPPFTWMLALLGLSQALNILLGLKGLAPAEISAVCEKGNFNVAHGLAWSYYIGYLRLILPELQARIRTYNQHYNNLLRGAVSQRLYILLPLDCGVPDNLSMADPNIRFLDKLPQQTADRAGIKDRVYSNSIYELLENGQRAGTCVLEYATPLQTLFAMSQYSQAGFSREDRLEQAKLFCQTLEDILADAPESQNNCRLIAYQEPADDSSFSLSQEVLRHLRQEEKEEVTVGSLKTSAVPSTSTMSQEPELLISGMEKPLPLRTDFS
Kind of assay: STING reporter assay (luciferase) in THP1-Dual KO-IFNAR2 cells stimulated with 2′3′cGAMP. As to conditions: 15 μM 2′3′cGAMP, 24 h, class symbols. It is filed as cell-based. The procedure:
STING pathway activation by the compounds described herein was measured using THP1-Dual™ cells (KO-IFNAR2).
THP1-Dual™ KO-IFNAR2 Cells (obtained from invivogen) were maintained in RPMI, 10% FCS, 5 ml P/S, 2 mM L-glut, 10 mM Hepes, and 1 mM sodium pyruvate. Compounds were spotted in empty 384 well tissue culture plates (Greiner 781182) by Echo for a final concentration of 0.0017-100 μM. Cells were plated into the TC plates […], 2×10E6 cells/mL. For activation with STING ligand, 2′3′cGAMP (MW 718.38, obtained from Invivogen), was prepared in Optimem media.
The following solutions were prepared for each 1×384 plate: • Solution A: 2 mL Optimem with one of the following stimuli: • 60 μL of 10 mM 2′3′cGAMP->150 μM stock • Solution B: 2 mL Optimem with 60 μL Lipofectamine 2000->Incubate 5 min at RT
2 mL of solution A and 2 ml Solution B was mixed and incubated for 20 min at room temperature (RT). 20 uL of transfection solution (A+B) was added on top of the plated cells, with a final 2′3′cGAMP concentration of 15 μM. The plates were then centrifuged immediately at 340 g for 1 minute, after which they were incubated at 37° C., 5% CO2, >98% humidity for 24 h. Luciferase reporter activity was then measured. EC50 values were calculated by using standard methods known in the art.
Luciferase reporter assay: 10 μL of supernatant from the assay was transferred to white 384-plate with flat bottom and squared wells. One pouch of QUANTI-Luc™ Plus was dissolved in 25 mL of water. 100 μL of QLC Stabilizer per 25 mL of QUANTI-Luc™ Plus solution was added. 50 μL of QUANTI-Luc™ Plus/QLC solution per well was then added. Luminescence was measured on a Platereader (e.g., Spectramax I3X (Molecular Devices GF3637001)).
Luciferase reporter activity was then measured. EC50 values were calculated by using standard methods known in the art.
In general terms: A reporter such as luciferase makes a cellular process visible.
As for `CC(CNC(=O)C(=O)Nc1c[nH]c2ccncc12)Oc1ccc(C(F)(F)F)cc1` (centres unmarked) [Compound 164, N1-(1H-pyrrolo[3,2-c]pyridin-3-yl)-N2-(2-(4-(trifluoromethyl)-phenoxy)propyl)-oxalamide], the EC50 (as a rule, the concentration that produces a half-maximal response) was 1 to 5 µM.

The molecule `O=C(NCCc1ccc(C(F)(F)F)cc1)C(=O)Nc1c[nH]c2ccncc12` [Compound 153, N1-(1H-pyrrolo[3,2-c]pyridin-3-yl)-N2-(4-(trifluoromethyl)-phenethyl)-oxalamide] registered an EC50 of 0.2 to 1 µM.

In turn, `O=C(Nc1c[nH]c2ncc(F)cc12)C(=O)NC1CCC2(CCCC2)C1` (centres unmarked) [Compound 203] had an EC50 of 5 to 100 µM.

For `Cc1c(NC(=O)C(=O)Nc2c[nH]c3ccncc23)cccc1C(F)(F)F` [Compound 175, N1-(2-methyl-3-(trifluoromethyl)-phenyl)-N2-(1H-pyrrolo[3,2-c]pyridin-3-yl)oxalamide], the 50% effective concentration (EC50) fell in the range of 1 to 5 µM.

In turn, `O=C(NCC1(c2cccc(Cl)c2)CC1)C(=O)Nc1c[nH]c2ccncc12` [Compound 129] showed an EC50 of 5 to 100 µM.

As to `O=C(Nc1c[nH]c2ncc(F)cc12)C(=O)NC1CCC2(CCCC2)CC1` [Compound 198, N-(5-fluoro-1H-pyrrolo[2,3-b]pyridin-3-yl)-N′-(spiro[4.5]decan-8-yl)oxalamide], the 50% effective concentration (EC50) was in the range of 0.2 to 1 µM.

For `CC(C)n1cc(-c2ccc3[nH]cc(NC(=O)C(=O)Nc4ccc(C5CCCCC5)cn4)c3n2)cn1` [Compound 206, N-(5-cyclohexylpyridin-2-yl)-N′-(5-(1-isopropyl-1H-pyrazol-4-yl)-1H-pyrrolo[3,2-b]pyridin-3-yl)oxalamide], the EC50 is 1 to 5 µM.

In turn, `O=C(NCCC1CCC(F)(F)CC1)C(=O)Nc1c[nH]c2ccncc12` [Compound 122, N^1-(2-(4,4-difluorocyclo-hexyl)ethyl)-N^2-(1H-pyrrolo[3,2-c]pyridin-3-yl)oxalamide] came in with an EC50 of 5 to 100 µM.

For the molecule `O=C(NCc1ccc(C(F)(F)F)c(Cl)c1)C(=O)Nc1c[nH]c2ncc(F)c(F)c12` [Compound 131], the 50% effective concentration (EC50) is 5 to 100 µM.

Take `Cc1ccc2[nH]cc(NC(=O)C(=O)Nc3cnc(N4CCC(F)(F)CC4)c(Cl)c3)c2n1` [Compound 195, N-(5-chloro-6-(4,4-difluoropiperidin-1-yl)pyridin-3-yl)-N′-(5-methyl-1H-pyrrolo[3,2-b]pyridin-3-yl)oxalamide]: the 50% effective concentration (EC50) fell in the range of 1 to 5 µM.

In turn, `O=C(Nc1ccc(C(F)(F)F)c(Cl)c1)C(=O)Nc1c[nH]c2cccnc12` [Compound 217] gave an EC50 of 1 to 5 µM.

For the molecule `O=C(NCC12CC3CC(CC(C3)C1)C2)C(=O)Nc1c[nH]c2ncc(F)cc12` [Compound 105, N^1-(adamantan-1-ylmethyl)-N^2-(5-fluoro-1H-pyrrolo[2,3-b]pyridin-3-yl)oxalamide], the 50% effective concentration (EC50) was 5 to 100 µM.

For `O=C(Nc1c[nH]c2ncc(F)cc12)C(=O)NC1CCC2(CCCCC2)CC1` [Compound 103, N^1-(5-fluoro-1H-pyrrolo[2,3-b]pyridin-3-yl)-N^2-(spiro[5.5]undecan-3-yl)oxalamide], the 50% effective concentration (EC50) is 0.2 to 1 µM.

Molecule `O=C(Nc1c[nH]c2ncc(F)cc12)C(=O)N[C@H]1CCC2(CCCC2)C1` (single isomer, unassigned) [Compound 199] gave a concentration giving a half-maximal response (EC50) of 5 to 100 µM.

Molecule `O=C(NCc1ccc(Cl)c(OC(F)(F)F)c1)C(=O)Nc1c[nH]c2ccncc12` [Compound 212] came in with an EC50 of 0.2 to 1 µM.

On to `O=C(NCc1ccc(-c2ccccc2C(F)(F)F)cc1)C(=O)Nc1c[nH]c2ccncc12` [Compound 120, N^1-(1H-pyrrolo[3,2-c]pyridin-3-yl)-N^2-((2′-(trifluoro-methyl)-[1,1′-biphenyl]-4-yl)methyl)oxalamide], for which the 50% effective concentration (EC50) was in the range of 0.2 to 1 µM.

With `O=C(Nc1c[nH]c2ncc(F)cc12)C(=O)N[C@H]1CCC2(CCCCC2)C1` (single isomer, unassigned) [Compound 201], the EC50 lay in the range of 1 to 5 µM.

Turning to `O=C(NCCOc1ccc(C(F)(F)F)cc1)C(=O)Nc1c[nH]c2ccncc12` [Compound 159, N1-(1H-pyrrolo[3,2-c]pyridin-3-yl)-N2-(2-(4-(trifluoromethyl)-phenoxy)ethyl)oxalamide], the concentration giving a half-maximal response (EC50) lay in the range of 1 to 5 µM.

With `O=C(NCCc1ncc(C(F)(F)F)cc1Cl)C(=O)Nc1c[nH]c2ccncc12` [Compound 166, N1-(2-(3-chloro-5-(trifluoromethyl)-pyridin-2-yl)ethyl)-N2-(1H-pyrrolo[3,2-c]pyridin-3-yl)oxalamide], the 50% effective concentration (EC50) lay in the range of 5 to 100 µM.

The molecule `O=C(Nc1c[nH]c2ncc(F)cc12)C(=O)N[C@@H]1CCC2(CCCC2)C1` (single isomer, unassigned) [Compound 200] showed an EC50 of 5 to 100 µM.

Regarding `Cc1ccc2[nH]cc(NC(=O)C(=O)Nc3ccc(C4CCCCC4)cn3)c2n1` [Compound 207], the EC50 lay in the range of 0.2 to 1 µM.

`Cc1cc(NC(=O)C(=O)Nc2c[nH]c3ncc(F)cc23)cc(C(F)(F)F)c1` [Compound 101, N^1-(5-fluoro-1H-pyrrolo[2,3-b]pyridin-3-yl)-N^2-(3-methyl-5-(trifluoromethyl)phenyl)oxalamide] showed an EC50 of 0.2 to 1 µM.

The molecule `O=C(Nc1ccc(C(F)(F)F)c(Cl)c1)C(=O)Nc1c[nH]c2ccncc12` [Compound 216] came in with an EC50 of 0.2 to 1 µM.

`Cc1cc(CNC(=O)C(=O)Nc2c[nH]c3cnccc23)ccc1C(F)(F)F` [Compound 213] returned an EC50 of 1 to 5 µM.

In the case of `O=C(Nc1c[nH]c2ncc(F)cc12)C(=O)NC1CCC2(CCCCC2)C1` (centres unmarked) [Compound 204, N-(5-fluoro-1H-pyrrolo[2,3-b]pyridin-3-yl)-N′-(spiro[4.5]decan-2-yl)oxalamide], the concentration for a half-maximal effect (EC50) is 5 to 100 µM.

Molecule `Cc1ccc(CNC(=O)C(=O)Nc2c[nH]c3cccnc23)cc1C(F)(F)F` [Compound 109, N^1-(4-methyl-3-(trifluoromethyl)benzyl)-N^2-(1H-pyrrolo[3,2-b]pyridin-3-yl)oxalamide] displayed a concentration for a half-maximal effect (EC50) of 0.2 to 1 µM.

For `O=C(Nc1c[nH]c2ncc(F)cc12)C(=O)N[C@@H]1CCCC2(CCCCC2)C1` (single isomer, unassigned) [Compound 197, N-[5-fluoro-1H-pyrrolo[2,3-b]pyridin-3-yl]-N′-[(2R or 2S)-spiro[5.5]undecan-2-yl]ethanediamide], the 50% effective concentration (EC50) lay in the range of 5 to 100 µM.

The molecule `Cc1ccccc1N1C2CCC1CC(NC(=O)C(=O)Nc1c[nH]c3ncc(F)cc13)C2` (centres unmarked) [Compound 209, N-[5-fluoro-1H-pyrrolo[2,3-b]pyridin-3-yl]-N′-[8-(2-methylphenyl)-8-azabicyclo[3.2.1]octan-3-yl]ethanediamide] showed an EC50 of 1 to 5 µM.

Regarding `C[C@@H](NC(=O)C(=O)Nc1c[nH]c2c(F)cncc12)c1ccc(C(F)(F)F)cc1` [Compound 205], the EC50 lay within 1 to 5 µM.

The same assay, now with this note: 15 μM 2′3′cGAMP, 24 h, numeric bounds.
In the case of `O=C(NCC(F)(F)c1ccccc1)C(=O)Nc1c[nH]c2ccncc12` [Compound 163, N1-(2,2-difluoro-2-phenylethyl)-N2-(1H-pyrrolo[3,2-c]pyridin-3-yl)oxalamide], the 50% effective concentration (EC50) was > 30 µM.

With `COc1ccc(CNC(=O)C(=O)Nc2c[nH]c3ccncc23)cc1Cl` [Compound 168, N1-(3-chloro-4-methoxybenzyl)-N2-(1H-pyrrolo[3,2-c]pyridin-3-yl)oxalamide], the EC50 is > 30 µM.

Regarding `O=C(NCCC1(C(F)(F)F)CC1)C(=O)Nc1c[nH]c2ccncc12` [Compound 161, N1-(1H-pyrrolo[3,2-c]pyridin-3-yl)-N2-(2-(1-(trifluoromethyl)-cyclopropyl)-ethyl)oxalamide], the half-maximal effective concentration (EC50) is > 30 µM.

`O=C(NCCOc1ccc(C(F)(F)F)cc1)C(=O)Nc1c[nH]c2cccnc12` [Compound 133, N1-(1H-pyrrolo[3,2-b]pyridin-3-yl)-N2-(2-(4-(trifluoromethyl)phenoxy)ethyl)oxalamide]: the EC50 is > 30 µM.

For the molecule `O=C(Nc1cnc2c(c1)CCCC2)C(=O)Nc1c[nH]c2cccnc12` [Compound 108, N^1-(1H-pyrrolo[3,2-b]pyridin-3-yl)-N^2-(5,6,7,8-tetrahydro-quinolin-3-yl)oxalamide], the EC50 is > 100 µM.

Take `O=C(NCC1CCC(F)(F)CC1)C(=O)Nc1c[nH]c2ccncc12` [Compound 160, N1-((4,4-difluorocyclohexyl)-methyl)-N2-(1H-pyrrolo[3,2-c]pyridin-3-yl)oxalamide]: the concentration giving a half-maximal response (EC50) was > 30 µM.

Turning to `O=C(NCc1cccc(N2CCCCC2)c1)C(=O)Nc1c[nH]c2cccnc12` [Compound 141, N1-(3-(piperidin-1-yl)benzyl)-N2-(1H-pyrrolo[3,2-b]pyridin-3-yl)oxalamide], the EC50 was > 30 µM.

For `O=C(Nc1ccc(OCC(F)(F)F)nc1)C(=O)Nc1c[nH]c2cccnc12` [Compound 150, N1-(1H-pyrrolo[3,2-b]pyridin-3-yl)-N2-(6-(2,2,2-trifluoroethoxy)pyridin-3-yl)oxalamide], the concentration giving a half-maximal response (EC50) was > 30 µM.

Turning to `O=C(NCCc1cccc(C(F)(F)F)c1)C(=O)Nc1c[nH]c2cccnc12` [Compound 149, N1-(1H-pyrrolo[3,2-b]pyridin-3-yl)-N2-(3-(trifluoromethyl)phenethyl)oxalamide], the EC50 was > 30 µM.
